One compound from BindingDB's records for doi:10.1016/s0028-3908(00)00035-6 (University of Cambridge, 2000) can be followed below.

Where “and” joins values, the source holds several entries; their conditions need not be identical. Equal entries are not always repeated.

Assay [1] deals with Somatostatin receptor type 2 (Homo sapiens, UniProt P30874).
For assay [2], the target named is Somatostatin receptor type 5 (Homo sapiens, UniProt P35346).
Assay [3] concerns the target Somatostatin receptor type 4 (Homo sapiens, UniProt P31391).
Assay [4] addresses Somatostatin receptor type 3 (Homo sapiens, UniProt P32745).
In assay [5] the target is Somatostatin receptor type 2 (Rattus norvegicus, UniProt P30680).
Somatostatin receptor type 2 (Rattus norvegicus, UniProt P30680), sequence (P30680 whole entry): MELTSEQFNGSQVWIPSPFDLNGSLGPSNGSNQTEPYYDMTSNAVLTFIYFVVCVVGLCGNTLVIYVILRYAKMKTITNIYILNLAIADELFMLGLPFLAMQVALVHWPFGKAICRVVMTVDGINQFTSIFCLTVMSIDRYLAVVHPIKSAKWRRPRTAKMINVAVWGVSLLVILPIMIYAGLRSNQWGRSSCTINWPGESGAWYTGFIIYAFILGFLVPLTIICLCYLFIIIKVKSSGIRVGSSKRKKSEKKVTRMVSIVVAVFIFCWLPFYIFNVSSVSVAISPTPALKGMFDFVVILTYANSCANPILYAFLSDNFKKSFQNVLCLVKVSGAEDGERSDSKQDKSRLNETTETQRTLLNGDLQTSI

Somatostatin receptor type 4, sequence (P31391 whole entry): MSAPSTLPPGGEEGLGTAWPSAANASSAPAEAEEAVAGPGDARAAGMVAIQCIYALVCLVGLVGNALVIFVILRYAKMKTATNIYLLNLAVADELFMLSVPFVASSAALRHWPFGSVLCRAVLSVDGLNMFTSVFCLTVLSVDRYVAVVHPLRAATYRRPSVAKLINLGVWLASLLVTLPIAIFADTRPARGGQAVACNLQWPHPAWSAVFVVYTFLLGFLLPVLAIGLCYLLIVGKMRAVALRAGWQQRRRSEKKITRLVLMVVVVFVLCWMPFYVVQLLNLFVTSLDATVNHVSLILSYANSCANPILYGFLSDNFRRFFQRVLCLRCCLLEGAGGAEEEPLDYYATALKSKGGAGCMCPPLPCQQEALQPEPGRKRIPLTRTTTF
Somatostatin receptor type 3, sequence (P32745 whole entry): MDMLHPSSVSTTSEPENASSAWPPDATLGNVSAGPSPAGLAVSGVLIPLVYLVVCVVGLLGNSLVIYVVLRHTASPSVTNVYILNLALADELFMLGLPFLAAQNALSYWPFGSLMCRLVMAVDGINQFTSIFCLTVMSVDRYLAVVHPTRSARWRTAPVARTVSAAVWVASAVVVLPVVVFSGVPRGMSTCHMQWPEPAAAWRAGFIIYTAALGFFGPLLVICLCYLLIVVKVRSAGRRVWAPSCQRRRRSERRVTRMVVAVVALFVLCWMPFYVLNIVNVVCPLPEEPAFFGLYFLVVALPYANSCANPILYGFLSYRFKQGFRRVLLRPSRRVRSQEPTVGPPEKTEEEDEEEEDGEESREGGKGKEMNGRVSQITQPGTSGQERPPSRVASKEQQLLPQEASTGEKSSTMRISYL
Somatostatin receptor type 5, sequence (P35346 whole entry): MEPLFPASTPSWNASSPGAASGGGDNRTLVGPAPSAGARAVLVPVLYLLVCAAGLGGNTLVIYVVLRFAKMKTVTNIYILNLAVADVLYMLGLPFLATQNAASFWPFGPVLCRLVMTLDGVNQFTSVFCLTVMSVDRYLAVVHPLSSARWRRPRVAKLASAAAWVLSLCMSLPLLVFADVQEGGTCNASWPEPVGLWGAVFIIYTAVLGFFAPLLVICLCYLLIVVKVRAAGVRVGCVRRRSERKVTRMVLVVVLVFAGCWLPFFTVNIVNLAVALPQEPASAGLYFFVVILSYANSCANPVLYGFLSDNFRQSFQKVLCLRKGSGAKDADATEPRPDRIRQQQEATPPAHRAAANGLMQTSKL
Somatostatin receptor type 2 (Homo sapiens, UniProt P30874), sequence (P30874 whole entry): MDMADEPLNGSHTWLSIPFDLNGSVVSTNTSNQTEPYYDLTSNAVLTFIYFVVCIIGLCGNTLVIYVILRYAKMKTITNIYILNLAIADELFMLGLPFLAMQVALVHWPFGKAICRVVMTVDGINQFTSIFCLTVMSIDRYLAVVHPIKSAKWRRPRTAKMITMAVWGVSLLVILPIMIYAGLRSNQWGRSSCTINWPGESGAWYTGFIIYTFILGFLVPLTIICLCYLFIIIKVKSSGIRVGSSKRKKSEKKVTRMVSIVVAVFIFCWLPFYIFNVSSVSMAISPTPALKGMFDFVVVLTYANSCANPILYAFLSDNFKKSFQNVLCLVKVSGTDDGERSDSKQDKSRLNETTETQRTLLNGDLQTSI

By Ki is commonly meant the dissociation constant of the complex between target and ligand, obtained from inhibition or displacement. For the compound `CC(=O)N[C@@H](Cc1ccc([N+](=O)[O-])cc1)C(=O)N[C@@H]1CSSC[C@@H](C(=O)N[C@H](Cc2ccc(O)cc2)C(N)=O)NC(=O)[C@H]([C@@H](C)O)NC(=O)[C@H](CCCCN)NC(=O)[C@@H](Cc2c[nH]c3ccccc23)NC(=O)[C@H](Cc2ccc(O)cc2)NC1=O` [CAS_183658-72-2], the Ki in assay [1] is 2.63 nM; in assay [2] it was 331 nM; in assay [3], 1740 nM; in assay [4], 851 nM; in assay [5], 7.94 nM and 4.47 nM.
